These results are taken from patent US11253516B2, “N2,N4-diphenylpyrimidine-2,4-diamine derivative, method for preparing same, and pharmaceutical composition containing same as active ingredient for prevention or treatment of cancer” (Korea Research Institute of Chemical Technology, priority 2017, dated 2022).

In data set [1] the test system is Ba/F3 EGFR del19/T790M/C797S cell line. Put plainly: CellTiter-Glo cell viability, Ba/F3 EGFR del19/T790M/C797S. The format is cell-based. The settings on record: read-out: Ba/F3 EGFR del19/T790M/C797S IC50. The procedure, abridged:
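Ba/F3 cells expressing mutant EGFR exposed to compound for 72 hours. Viability read as cellular ATP by CellTiter-Glo luminescence after 30 min equilibration at ambient temperature and 10 min shaking with reagent.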

Data set [2] deals with EGFR del19/T790M (Homo sapiens (Human), UniProt P00533, DEL746-750/T790M). Briefly: HTRF enzyme assay, EGFR del19/T790M. The format is biochemical. The settings on record: recombinant enzyme. The procedure, abridged: (§1)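 Wild-type or mutant EGFR was premixed with compound, then ATP […] and biotinylated peptide […] were added. Buffer was 50 mM Tris-HCl pH 7.5 with NaCl, MgCl2, KCl, Tween 20, BSA and DTT; reactions ran 2 h at 37 °C.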

In data set [3] the target is FLT3(D835Y) (Homo sapiens (Human), UniProt P36888, D835Y). Put plainly: KINOMEscan binding, FLT3(D835Y). On the procedure: (§2) The inhibitory activity on FLT kinase, such as wild-type FLT1, FLT3, FLT4, and FLT3 mutation forms, FLT3(D835H), FLT3(D835V), FLT3(D835Y), FLT3(ITD), FLT3(ITD,D835V), FLT3(ITD,F691L), FLT3(K663Q), FLT3(N841I), FLT3(R834Q) was measured.
(§3) FLT3 kinase inhibition was carried out by KINOMEscan method (DiscoverX Inc.). KINOMEscan method consists of the following processes. T7 bacteriophage labeled with FLT kinase was cultured by the infection to E. coli derived from BL21. After the infection of E. coli in the condition of 0.4 of MOI (multiplicity of infection), it was cultured for 90 to 150 minutes at 32° C. to lyse E. coli. The cell debris was removed by centrifugation and filtration, and the kinase protein present in the supernatant was secured. Additionally, the kinase protein was labeled with DNA for the qPCR measurement. The magnetic beads labeled with streptavidin were treated with the standard compound labeled with biotin and reacted for 30 minutes. The resulting beads were used as affinity beads for the measurement of a kinase activity. The binding reaction was initiated with mixing a kinase protein, the affinity beads bound with a ligand, and the compound. In this case, the used buffer solution was 20% SeaBlock, 0.17×PBS, 0.05% Tween 20, 6 mM DTT. […] The affinity of the compound to be tested was indirectly measured by Quantifying the eluted kinase by […].

Data set [4] has as its target EGFR del19 (Homo sapiens (Human), UniProt P00533, DEL746-750). Briefly: HTRF enzyme assay, EGFR del19. It counts as biochemical. To be noted: recombinant enzyme. The procedure, abridged:
as §1

Data set [5] concerns the target FLT3(N841I) (Homo sapiens (Human), UniProt P36888, N841I). Put plainly: KINOMEscan binding, FLT3(N841I). On the procedure: as §2, §3
Data set [6] deals with FLT3(ITD) (Homo sapiens, UniProt P36888, ITD). Briefly: KINOMEscan binding, FLT3(ITD). On the procedure: as §2, §3
For data set [7], the target named is FLT4 (Homo sapiens (Human), UniProt P35916). Put plainly: KINOMEscan binding, FLT4. On the procedure: as §2, §3
For data set [8], the system named is Ba/F3 Del19/T790M/C797S cell line. Put plainly: Relative cell viability alone or in combination with cetuximab. The format is cell-based. The settings on record: for viability at 0.03 µM: Mus musculus; for cell viability decreased than brigatinib in combination with cetuximab: combination with 10 μg cetuximab vs 30 nM brigatinib plus cetuximab. The source says:
In order to confirm a cell activity on Ba/F3 Del19/T790M/C797S cell line when administering the compound according to the present invention in combination with a conventional drug, cetuximab to be used in single therapy or combination therapy with anticancer chemotherapy in metastatic colorectal cancer, metastatic squamous epithelium head and neck cancer and the like was used to evaluate the cell activity according to the combination administration.
Specifically, brigatinib was used as a control drug, and each of 30 nM of brigatinib, 30 nM of the compound of Example 10 according to the present invention, and 15 nM of the compound of Example 11 was administered to Ba/F3 Del19/T790M/C797S cell line in combination with 10 μg of cetuximab, which is a monoclonal antibody.

Data set [9] has as its system pERK, pAKT, pS6 (EGFR sub-signal) in Ba/F3 Del19/T790M/C797S cell line. Briefly: EGFR sub-signal activity (pERK, pAKT, pS6) alone or in combination with cetuximab. The settings on record: for activity in pERK, pAKT, pS6 (EGFR sub-signal) when administered alone: 30, 100, 300, 1000 nM alone; for sub-signal activity when administered in combination with cetuximab: 30, 100, 300, 1000 nM plus 10 μg cetuximab; for sub-signal activity compared with brigatinib in combination with cetuximab: vs brigatinib plus cetuximab. It counts as cell-based. The method, then:
In addition, when administering each of brigatinib, the compounds of Examples 10 and 11 of the present invention in 30, 100, 300, 1000 nM alone or in combination with 10 μg of cetuximab, the sub-signal activity on a/F3 Del19/T790M/C797S cell line was evaluated and the results are shown in FIGS. 5 to 7.

The target in data set [10] is EGFR wt. (Homo sapiens (Human), UniProt P00533). Put plainly: HTRF enzyme assay, wild-type EGFR. The format is biochemical. The settings on record: recombinant enzyme. The procedure, abridged:
as §1

The mark [11] stands for this setting: BaF3, 30 nM Example 10 or 15 nM Example 11 alone vs 10 μg cetuximab alone, read-out: lower cell viability when administered alone than cetuximab.
Setting [12] is: BaF3, 30 nM Example 10 or 15 nM Example 11 plus 10 μg cetuximab vs alone, read-out: cell viability decreased when administered in combination with cetuximab than when administered alone.

Like-named read-outs stand apart in the source and are kept apart here. A value given as a limit tells only on which side of the number the result lay.

Sequence of FLT4 (P35916 25-1363): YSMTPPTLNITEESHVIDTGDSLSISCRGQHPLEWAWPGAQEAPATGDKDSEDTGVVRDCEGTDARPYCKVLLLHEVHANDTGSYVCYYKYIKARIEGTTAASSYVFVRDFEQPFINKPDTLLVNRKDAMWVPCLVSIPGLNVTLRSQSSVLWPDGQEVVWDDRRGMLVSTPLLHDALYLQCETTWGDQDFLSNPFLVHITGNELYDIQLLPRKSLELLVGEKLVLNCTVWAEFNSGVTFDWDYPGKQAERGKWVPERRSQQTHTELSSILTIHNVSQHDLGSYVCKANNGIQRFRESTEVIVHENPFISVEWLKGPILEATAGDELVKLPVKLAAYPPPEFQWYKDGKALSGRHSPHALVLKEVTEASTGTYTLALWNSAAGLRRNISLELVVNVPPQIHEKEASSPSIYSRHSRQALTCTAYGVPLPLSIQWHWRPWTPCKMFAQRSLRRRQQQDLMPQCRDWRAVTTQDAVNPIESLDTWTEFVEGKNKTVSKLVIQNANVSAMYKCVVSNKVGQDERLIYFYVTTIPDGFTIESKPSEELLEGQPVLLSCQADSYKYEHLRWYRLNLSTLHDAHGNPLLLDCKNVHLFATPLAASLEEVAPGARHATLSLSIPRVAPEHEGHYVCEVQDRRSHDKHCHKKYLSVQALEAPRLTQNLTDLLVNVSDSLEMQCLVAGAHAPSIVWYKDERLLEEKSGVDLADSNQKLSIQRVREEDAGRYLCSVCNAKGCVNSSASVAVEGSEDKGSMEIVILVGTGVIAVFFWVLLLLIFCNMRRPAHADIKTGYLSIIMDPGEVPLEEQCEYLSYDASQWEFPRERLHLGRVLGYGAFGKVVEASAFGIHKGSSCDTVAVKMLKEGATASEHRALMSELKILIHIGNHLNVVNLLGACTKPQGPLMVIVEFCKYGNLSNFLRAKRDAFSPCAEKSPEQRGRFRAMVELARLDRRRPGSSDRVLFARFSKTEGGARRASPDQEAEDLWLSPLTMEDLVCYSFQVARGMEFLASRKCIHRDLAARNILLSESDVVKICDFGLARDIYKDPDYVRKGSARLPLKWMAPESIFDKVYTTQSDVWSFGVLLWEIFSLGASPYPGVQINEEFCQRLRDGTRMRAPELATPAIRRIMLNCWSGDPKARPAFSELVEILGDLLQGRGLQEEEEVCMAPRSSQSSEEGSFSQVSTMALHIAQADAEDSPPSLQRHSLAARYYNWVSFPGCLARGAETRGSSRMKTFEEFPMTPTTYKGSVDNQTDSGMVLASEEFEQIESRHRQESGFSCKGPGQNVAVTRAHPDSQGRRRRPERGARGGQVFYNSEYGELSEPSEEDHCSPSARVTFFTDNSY
Sequence of EGFR del19/T790M (P00533 other isoform, or with tags, fused parts or gaps T790M/del 1-668/del 746-750 limits assumed): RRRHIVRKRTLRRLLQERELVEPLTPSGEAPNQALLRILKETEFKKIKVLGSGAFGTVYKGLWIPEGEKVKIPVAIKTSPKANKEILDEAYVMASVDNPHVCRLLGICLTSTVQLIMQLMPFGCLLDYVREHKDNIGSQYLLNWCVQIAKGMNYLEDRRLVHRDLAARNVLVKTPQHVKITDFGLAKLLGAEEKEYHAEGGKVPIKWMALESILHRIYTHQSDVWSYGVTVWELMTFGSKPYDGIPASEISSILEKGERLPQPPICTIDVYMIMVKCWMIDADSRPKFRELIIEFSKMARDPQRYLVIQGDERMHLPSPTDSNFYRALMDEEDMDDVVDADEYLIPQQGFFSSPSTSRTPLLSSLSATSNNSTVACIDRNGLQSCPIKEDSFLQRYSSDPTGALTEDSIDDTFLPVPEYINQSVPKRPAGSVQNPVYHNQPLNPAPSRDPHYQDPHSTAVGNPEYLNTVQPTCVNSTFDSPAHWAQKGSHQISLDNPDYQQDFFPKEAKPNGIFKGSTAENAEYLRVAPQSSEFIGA
Sequence of EGFR del19 (P00533 other isoform, or with tags, fused parts or gaps del 1-668/del 746-750 limits assumed): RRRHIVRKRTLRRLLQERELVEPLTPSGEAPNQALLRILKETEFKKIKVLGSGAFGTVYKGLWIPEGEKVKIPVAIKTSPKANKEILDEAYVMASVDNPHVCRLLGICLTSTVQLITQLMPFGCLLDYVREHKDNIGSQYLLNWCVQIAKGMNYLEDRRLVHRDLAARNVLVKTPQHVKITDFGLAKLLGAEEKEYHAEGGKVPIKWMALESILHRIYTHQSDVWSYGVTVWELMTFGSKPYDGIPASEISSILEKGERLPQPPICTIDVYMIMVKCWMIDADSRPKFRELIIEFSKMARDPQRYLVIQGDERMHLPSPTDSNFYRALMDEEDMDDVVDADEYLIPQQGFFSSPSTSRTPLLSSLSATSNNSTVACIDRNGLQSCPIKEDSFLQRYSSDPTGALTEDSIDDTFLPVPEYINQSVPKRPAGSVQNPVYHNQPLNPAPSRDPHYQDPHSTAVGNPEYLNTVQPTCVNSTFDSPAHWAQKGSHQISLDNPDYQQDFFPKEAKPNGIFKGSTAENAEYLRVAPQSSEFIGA
Sequence of EGFR wt. (P00533 25-1210): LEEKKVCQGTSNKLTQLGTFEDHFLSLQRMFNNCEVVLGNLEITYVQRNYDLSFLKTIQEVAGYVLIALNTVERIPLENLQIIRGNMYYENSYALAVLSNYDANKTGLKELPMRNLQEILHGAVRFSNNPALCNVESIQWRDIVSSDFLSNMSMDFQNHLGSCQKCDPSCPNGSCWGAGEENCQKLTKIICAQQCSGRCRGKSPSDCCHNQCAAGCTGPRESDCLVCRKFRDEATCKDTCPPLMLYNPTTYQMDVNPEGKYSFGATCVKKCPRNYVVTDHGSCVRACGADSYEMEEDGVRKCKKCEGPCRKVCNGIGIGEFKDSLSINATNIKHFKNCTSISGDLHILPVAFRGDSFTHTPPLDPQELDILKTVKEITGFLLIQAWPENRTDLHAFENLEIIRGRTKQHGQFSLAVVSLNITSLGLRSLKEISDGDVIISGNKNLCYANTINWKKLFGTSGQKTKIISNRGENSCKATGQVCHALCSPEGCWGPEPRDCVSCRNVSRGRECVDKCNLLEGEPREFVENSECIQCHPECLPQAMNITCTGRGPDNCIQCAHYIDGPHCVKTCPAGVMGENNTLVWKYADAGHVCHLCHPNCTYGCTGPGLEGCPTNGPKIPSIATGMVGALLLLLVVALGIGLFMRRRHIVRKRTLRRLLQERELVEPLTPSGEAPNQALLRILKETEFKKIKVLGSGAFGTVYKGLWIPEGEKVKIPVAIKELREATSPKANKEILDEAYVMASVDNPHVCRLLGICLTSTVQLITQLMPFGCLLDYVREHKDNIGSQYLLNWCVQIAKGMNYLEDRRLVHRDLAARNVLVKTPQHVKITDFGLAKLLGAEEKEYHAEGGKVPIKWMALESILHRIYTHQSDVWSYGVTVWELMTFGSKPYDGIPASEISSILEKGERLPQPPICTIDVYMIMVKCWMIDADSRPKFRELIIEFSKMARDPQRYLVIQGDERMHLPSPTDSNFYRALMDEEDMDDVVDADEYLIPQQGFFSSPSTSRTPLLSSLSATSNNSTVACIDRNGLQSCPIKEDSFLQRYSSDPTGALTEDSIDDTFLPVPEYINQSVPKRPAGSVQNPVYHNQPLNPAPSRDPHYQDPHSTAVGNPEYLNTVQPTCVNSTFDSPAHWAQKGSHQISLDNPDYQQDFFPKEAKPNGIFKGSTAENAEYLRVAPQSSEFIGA

In the case of `COc1cc(N2CCC(N3CCN(C)CC3)CC2)ccc1Nc1ncc(Cl)c(Nc2ccccc2NS(C)(=O)=O)n1` [Example 10, N-(2-((5-chloro-2-((2-methoxy-4-(4-(4-methylpiperazin-1-yl)piperidin-1-yl)phenyl)amino)pyrimidin-4-yl)amino)phenyl)methanesulfonamide], the IC50 in data set [1] (72 h) was 63 nM; in data set [2], 4 nM; in data set [4] it was 0.7 nM; in [10], 430 nM. Also, the dissociation constant Kd in data set [3] was 4.2 nM; in data set [5], 6.5 nM; in data set [6] it was 18 nM; in data set [7] it was 200 nM. Further, the viability at 0.03 µM is at least 30% in data set [8] (setting [11]) and at least 50% in data set [8] (setting [12]). The “cell viability decreased than brigatinib in combination with cetuximab” value in data set [8] is listed as “at least 20%”. Also, the “activity in pERK, pAKT, pS6 (EGFR sub-signal) when administered alone” value in [9] is “concentration-dependent activity”. In addition, the “sub-signal activity when administered in combination with cetuximab” value in [9] is “superior activity”. For the same compound, in data set [9], the “sub-signal activity compared with brigatinib in combination with cetuximab” value is listed as “superior activity”.

As for `COc1cc(N2CCC(N(C)C)CC2)ccc1Nc1ncc(Cl)c(Nc2ccccc2NS(C)(=O)=O)n1` [Example 11, N-(2-((5-chloro-2-((4-(4-(dimethylamino)piperidin-1-yl)-2-methoxyphenyl)amino)pyrimidin-4-yl)amino)phenyl)methanesulfonamide], the IC50 stood at 38 nM in data set [1] (CellTiter-Glo, 72 hours); 3.1 nM in data set [2]; 7.8 nM in [4]; 280 nM in [10]. In addition, the Kd stood at 1.5 nM in [3], 3.8 nM in [5], 4.2 nM in data set [6] and 81 nM in data set [7]. The viability at 0.03 µM in data set [8] (setting [11]) is at least 30%; in [8] (setting [12]) it was at least 50%. Further, the “cell viability decreased than brigatinib in combination with cetuximab” value in data set [8] is listed as “at least 20%”. For the same compound, in data set [9], the “activity in pERK, pAKT, pS6 (EGFR sub-signal) when administered alone” value is “concentration-dependent activity”. The “sub-signal activity when administered in combination with cetuximab” value in [9] is “superior activity”. In addition, the “sub-signal activity compared with brigatinib in combination with cetuximab” value in [9] is on record as “superior activity”.
